{"source": "patent US20190054103A1", "about": "“METHOD OF TREATMENT OF TP53 WILD-TYPE TUMORS WITH 2',2'-DIFLUORO-5-AZA-2'-DEOXYCYTIDINE OR PRODRUGS THEREOF” (priority 2016, published 2019)", "key": {"SK-OV-3": {"test_system": "SK-OV-3", "assay": "NCI 60 Cell Line Panel growth inhibition", "assay_type": "cell-based, human", "conditions": "SK-OV-3, Ovarian cancer, TP53 null/mutant", "description": "(§1) The NCI-60 Cell Line Panel was assembled by the National Cancer Institute as an in vitro anticancer drug screen. The panel comprises human cancer cell lines representing nine different tissues of origin: breast, colon, central nervous system, renal, lung, melanoma, ovarian, prostate, and hematogenous. […] See, e.g., Leroy et al. “Analysis of TP53 Mutation Status in Human Cancer Cell Lines: a Reassesment” Hum Mutat 2014 35(6): 756-765."}, "NCI-H23": {"test_system": "NCI-H23", "assay": "NCI 60 Cell Line Panel growth inhibition", "assay_type": "cell-based, human", "conditions": "NCI-H23, Lung-NSCL, TP53 null/mutant", "description": "as §1"}, "[1]": {"test_system": "LoVo (colon cancer, TP WT)", "assay": "Xenograft model, nude mice implanted with LoVo", "conditions": "for mean tumor volumes compared to saline control: study days 9 through 51, FIG. 3B"}, "[2]": {"test_system": "TP53 WT colon cancer cell line Ls174T", "assay": "CellTiter-Glo growth inhibition, Ls174T", "assay_type": "cell-based", "conditions": "Homo sapiens, 72-hour exposure, FIG. 1", "protocol": "Two examples of additional comparisons are provided below for colon cancer cell lines (TP53 WT colon cancer cell line Ls174T and TP53 WT colon cancer cell line LoVo).\nIn these assays, two 96 well plates of each cell line were seeded with 5,000 cells per well in a total volume of […] per well and left incubating overnight. The following day, the cells were exposed to different concentrations of NUC013. At the end of a 72-hour exposure period, the plates were removed for CellTiter-Glo® assay. Luminescence was recorded on a Synergy 4.0."}, "NCI 60 Cell Line Panel": {"test_system": "NCI 60 Cell Line Panel", "assay": "NCI 60 Cell Line Panel, summary by TP53 status (2×2 contingency tables)", "assay_type": "cell-based, human", "description": "as §1"}, "in vivo": {"assay": "in vivo", "conditions": "nude, mouse, iv"}, "[3]": {"test_system": "HL-60 (leukemia, TP null)", "conditions": "HL-60 nude mice"}, "[4]": {"conditions": "TP53 (WT) cell lines of NCI 60 cell panel"}, "[5]": {"conditions": "TP53 (null/mutant) cell lines of NCI 60 cell panel"}}, "note": "Read-outs that look alike come from different tables or passages of the source.", "data": [{"compound": "Nc1ncn([C@@H]2O[C@H](CO)[C@@H](O)C2(F)F)c(=O)n1", "note": "[NUC013, 4-amino-1-((2R,4R,5R)-3,3-difluoro-4-hydroxy-5-(hydroxymethyl)tetrahydrofuran-2-yl)-1,3,5-triazin-2(1H)-one]", "values": [{"measurement": "Growth (%) at 10 μM", "setting": "SK-OV-3", "result": 71.09, "unit": "%"}, {"measurement": "Growth (%) at 10 μM", "setting": "NCI-H23", "result": 30.61, "unit": "%"}, {"measurement": "survival compared to saline controls", "setting": "[1]; 5.8 mg/kg", "result": "no difference in survival"}, {"measurement": "mean tumor weight lower compared to controls", "setting": "[1]; 5.8 mg/kg, 8 days following the end of treatment", "result": 24.3, "unit": "%"}, {"measurement": "mean tumor volumes compared to saline control", "setting": "[1]; 20 mg/kg", "result": "significantly lower"}, {"measurement": "mean tumor volumes compared to saline control", "setting": "[1]; 40 mg/kg", "result": "significantly lower"}, {"measurement": "GI50", "setting": "[2]", "result": 1.3, "unit": "µM"}, {"measurement": "inhibition at 10 µM", "setting": "NCI 60 Cell Line Panel; Homo sapiens, 60 cell, 10 μM, read-out: Inhibition of growth of hematogenous tumor cell lines", "result": "> 50", "unit": "%"}, {"measurement": "Number of cell lines with >50% growth inhibition at 10 μM", "setting": "NCI 60 Cell Line Panel; [4]", "result": 11}, {"measurement": "Number of cell lines with ≤50% growth inhibition at 10 μM", "setting": "NCI 60 Cell Line Panel; [4]", "result": 4}, {"measurement": "Number of cell lines with >50% growth inhibition at 10 μM", "setting": "NCI 60 Cell Line Panel; [5]", "result": 13}, {"measurement": "Number of cell lines with ≤50% growth inhibition at 10 μM", "setting": "NCI 60 Cell Line Panel; [5]", "result": 27}, {"measurement": "MTD at 3 weeks", "setting": "in vivo", "result": "> 120", "unit": "mg/kg"}, {"measurement": "animals removed from the study for death or moribund", "setting": "[3]; 5.8 mg/kg", "result": "no animals removed from the study for death or moribund"}, {"measurement": "tumor weights vs saline control", "setting": "[3]; 5.8 mg/kg", "result": "not significantly different"}, {"measurement": "hazard ratio (HR) vs saline control (death, ulcerated tumor or tumor >4 g)", "setting": "[3]; 5.8 mg/kg (equimolar to decitabine 5 mg/kg)", "result": 0.46}, {"measurement": "hazard ratio (HR) vs saline control (death, ulcerated tumor or tumor >4 g)", "setting": "[3]; 20 mg/kg", "result": 0.26}, {"measurement": "tumor volume vs saline control", "setting": "[3]; 20 mg/kg, study days 18 through 28, FIG. 3A", "result": "significant decreases"}]}]}
